Laboratory results taken from PMC5843355, “Evaluation of the Trypanosoma brucei 6-oxopurine salvage pathway as a potential target for drug discovery” (PLoS Neglected Tropical Diseases, 2018).
Several values for one entry are separate records, joined by “and”; a condition that tells them apart may be missing. Equal entries are not always repeated. Where two headings read alike, the source gives them in different places.

Experiments:
HGPRT-II [1] = biological target: T1, HGPRT-II (Trypanosoma brucei brucei, UniProt Q38C93); assay: Inhibition studies, Ki for recombinant HGPRT-II (spectrophotometric assay); type: biochemical
Method: (§1) The concentration of enzyme in the assay (varied from 75–200 μg/ml for the two enzymes) and the concentration of PRib-PP was kept at 1 mM. The reaction was carried out using a 1.0 cm path length with a UV Visible spectrometer 1601 (Shimadzu) in the reaction buffer (0.1 M Tris, pH 8.4; 0.11 M MgCl2; at 25°C).
(§2) The concentrations of inhibitors in the assay ranged from 1 nM to 100 μM, depending on the steady-state kinetics of the respective enzyme at that concentration of inhibitor. The reaction was preceded by 1 minute incubation of the respective enzyme with the given inhibitor. The Ki values were calculated using non-linear regression in GraphPad Prism5.

HGXPRT [2] = biological target: T2, HGXPRT (Trypanosoma brucei brucei, UniProt Q38CA1); assay: Inhibition studies, Ki for recombinant HGXPRT (spectrophotometric assay); type: biochemical; details: 0.1 M Tris pH 8.4, 0.11 M MgCl2, 25°C, parent ANP
Method: as §1, §2

HGPRT-I [3] = biological target: T3, HGPRT-I (Trypanosoma brucei brucei, UniProt Q07010); assay: Inhibition studies, Ki for recombinant HGPRT-I (spectrophotometric assay); type: biochemical; details: 0.1 M Tris pH 8.4, 0.11 M MgCl2, 25°C, parent ANP
T3 construct: 6x His-tag (N); AcTEV cleavage site (N); made in house; host or cells: E. coli One Shot BL21(DE3)
Method: as §1, §2

HGXPRT [4] = biological target: T2, HGXPRT; assay: Steady-state kinetic constants of 6-oxopurine bases for HGXPRT; details: PRib-PP 1 mM, pH 8.4, 25°C
Method: as §1

HGPRT-II [5] = biological target: T1, HGPRT-II; assay: Steady-state kinetic constants of 6-oxopurine bases for HGPRT-II; type: biochemical; details: PRib-PP 1 mM, pH 8.4, 25°C
Method: as §1

HGPRT-I [6] = biological target: T3, HGPRT-I; assay: Steady-state kinetic constants of 6-oxopurine bases for HGPRT-I; type: biochemical; details: PRib-PP 1 mM, pH 8.4, 25°C
Method: as §1

[7] = 0.1 M Tris pH 8.4, 0.11 M MgCl2, 25°C, parent ANP

T1 sequence (Q38C93 entry or part of it): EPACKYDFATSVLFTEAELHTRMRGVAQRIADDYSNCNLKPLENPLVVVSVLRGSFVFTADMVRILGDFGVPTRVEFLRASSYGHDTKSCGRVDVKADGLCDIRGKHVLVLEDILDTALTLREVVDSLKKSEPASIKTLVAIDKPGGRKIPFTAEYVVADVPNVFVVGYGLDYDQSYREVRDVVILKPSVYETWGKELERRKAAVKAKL
T2 sequence (Q38CA1 entry or part of it): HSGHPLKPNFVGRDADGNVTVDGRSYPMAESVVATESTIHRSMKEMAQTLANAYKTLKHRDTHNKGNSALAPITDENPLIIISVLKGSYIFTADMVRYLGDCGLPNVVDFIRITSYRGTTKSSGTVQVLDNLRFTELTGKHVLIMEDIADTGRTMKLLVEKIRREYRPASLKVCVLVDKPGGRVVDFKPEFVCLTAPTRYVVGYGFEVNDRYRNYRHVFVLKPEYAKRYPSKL
T3 sequence (Q07010 2-210 limits assumed): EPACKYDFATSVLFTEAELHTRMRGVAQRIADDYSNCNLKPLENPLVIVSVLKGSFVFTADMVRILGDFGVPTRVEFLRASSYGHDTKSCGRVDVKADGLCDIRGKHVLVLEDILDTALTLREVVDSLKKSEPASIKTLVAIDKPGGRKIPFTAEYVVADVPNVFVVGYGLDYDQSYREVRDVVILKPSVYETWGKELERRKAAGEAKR

| Compound | Ki (HGPRT-II [1]; [7]) | Ki (HGPRT-I [3]; read-out: HGPRT-I Ki) | Ki (HGXPRT [2]; read-out: HGXPRT Ki) | other results |
| --- | --- | --- | --- | --- |
| Nc1nc2c(ncn2CCN(CCN(CCP(=O)(O)O)CCP(=O)(O)O)CCP(=O)(O)O)c(=O)[nH]1 [compound 4] | 0.31 ± 0.06 µM | 0.29 ± 0.02 µM |  | Ki (HGXPRT [2]; HGXPRT Ki): 1.86 ± 0.29 µM |
| N#CCCN(CCn1cnc2c(=O)[nH]c(N)nc21)CCP(=O)(O)O [compound 1] | 14.2 ± 0.61 µM | 13.5 ± 0.83 µM | 19.9 ± 1.75 µM |  |
| O=c1[nH]cnc2c1ncn2CCN(CCN(CCP(=O)(O)O)CCP(=O)(O)O)CCP(=O)(O)O [compound 5] | 7.02 ± 1.62 µM | 2.47 ± 0.44 µM | 10.5 ± 1.32 µM |  |
| Nc1nc2nc[nH]c2c(=O)[nH]1 [Guanine] |  |  |  | kcat (HGXPRT [4]): 1.36 s⁻¹; kcat (HGPRT-II [5]): 0.05 s⁻¹ |
| O=c1[nH]cnc2c1ncn2CCN(CCOCP(=O)(O)O)CCP(=O)(O)O [compound 3] | 0.06 µM and < 1 µM | 0.12 µM and < 1 µM | 0.38 µM and < 1 µM |  |
| O=c1[nH]c(=O)c2nc[nH]c2[nH]1 [Xanthine] |  |  |  | Km (HGPRT-I [6]): No activity detected; kcat (HGPRT-I [6]): No activity detected; Km (HGPRT-I [6]; listed as xanthine): no affinity; kcat (HGPRT-I [6]; listed as xanthine): no activity; Km (HGPRT-II [5]): No activity detected; kcat (HGPRT-II [5]): No activity detected; kcat (HGPRT-II [5]; listed as xanthine): no activity |
| Nc1nc2c(ncn2CC(COCP(=O)(O)O)COCP(=O)(O)O)c(=O)[nH]1 [compound 6] |  |  |  | Ki (HGPRT-II [1]): 0.2 µM and < 1 µM; Ki (HGXPRT [2]; HGXPRT Ki): < 1 µM; Ki (HGPRT-I [3]; HGPRT-I Ki): < 1 µM |
| Nc1nc2c(ncn2CC(COCCP(=O)(O)O)OCCP(=O)(O)O)c(=O)[nH]1 (stereo not drawn) [compound 7] | 1.88 ± 0.17 µM | 0.89 ± 0.07 µM | 0.77 ± 0.06 µM |  |
| Nc1nc2c(ncn2CCN(CCOCP(=O)(O)O)CCP(=O)(O)O)c(=O)[nH]1 [compound 2] | 0.25 ± 0.02 µM | 0.11 µM | 6.54 µM |  |
